Key:
[1] = test system: PGC-1α promoter; assay: PGC-1α promoter luciferase assay (compound screening) in SH-PGC-1α-Luc reporter cells; format: cell-based, human; details: SH-PGC-1α-Luc cells, comparison of 14 drugs
Experimental: In order to prepare lentiviruses for preparation of stable reporter SH-SY5Y cells (SH-PGC-1α-Luc), 1-kb pGL3-PGC-1α promoter-luciferase was cloned to pGreenFire (System Biosciences), and a lentivirus construct was first prepared (provided by Akyosi Fukamizu from University of Tsukuba, Japan).
HEK293T cells cultured in 15 cm dish were subjected to transfection with 32 μg of pGreenFire vector, 9 μg of VSVg envelope, 6.25 μg of Prev, and 12.5 μg of pMDL.
After 48 hours, viral supernatants were collected and concentrated using ultracentrifugation, and viral pellets were dissolved with PBS. SH-SY5Y cells were treated with concentrated virus and screened with puromycin (1 μg/ml) a day later.
SH-PGC-1α-Luc was dispensed in a white, flat-bottomed 96-well plate, where culture was performed to accommodate 10,000 cells in 100 μl of DMEM (10% FBS+penicillin/streptomycin (P/S)) per well, and the cells were stabilized in an incubator at 37° C. in the presence of 5% CO2 for 12 hours.
The next day, each drug was added to 50 μl of warmed DMEM to the final concentration of 20 μM, then 50 μl of DMEM was removed from the cell-containing plate, and 50 μl of drug-containing DMEM was added (final concentration of 10 μM). Cells were then exposed to the drug for 48 hours, and luciferase activity was measured using SteadyGlo reagent (Promega). […]

[2] = test system: dopamine neurons in substantia nigra of AAV-PARIS Parkinson's disease model mice; assay: Death of dopamine neurons in AAV-PARIS Parkinson's disease model mice (TH immunohistochemistry and immunoblot); format: in vivo; details: AAV-PARIS injected mice, diet 0.5% w/w for 4 weeks
Source text: (§1) To prepare Parkinson's disease model mice, AAV-PARIS was stereotaxically injected into the substantia nigra area. The mice were fed with Chow or YPD-01 (2-(4-(1-hydroxypropan-2-yl)phenyl) isoindoline-1-one) diet (0.5% w/w) for 4 weeks, and then the brain was collected and sectioned using a microtome. Dopaminergic neurons were visualized by carrying out a reaction in the mouse brain tissue sliced into 35 μm sections using TH antibody, a neuronal dopamine marker, then exposed to Vectastine ABC (Vector biolabs) and DAB (Sigma) solutions. Six […] were used in each experiment.
100 μl of pentobarbital (10 mg/ml) was injected into the abdomen of 8-week-old mice for anesthetization, mouse pericranium was peeled off, and then the left brain (X: 1.2, Y: −3.2, Z: −4.5) and right brain (X: 1.2, Y: 3.2, Z: −4.5) regions were marked based on the bregma. The marked portion was drilled, and the virus was injected slowly (30 seconds per 0.2 μl) through a syringe. After injecting the virus into the left brain, followed by a 2-minute standby, the same procedure was performed on the other side. After the surgical suture, the mice were carefully monitored, and breeding was followed in the cage until the recovery. […]

[3] = test system: PGC-1α protein in the SN of mice; assay: Immunoblot of PGC-1α protein in the substantia nigra (SN) of mice fed compound diet; format: in vivo; details: diet 0.5% w/w for 1 week
Experimental: (§2) RIPA buffer was added to the SH-SY5Y cells and SN of C57L/6N mice, followed by homogenization with a homogenizer. Thereafter, the freezing and melting process was repeated three times, and quantification was performed using a BCA kit based on BSA to check the total amount of protein.
(§3) Lysates were identified by adding 2× SDS sample buffer, heating at 95° C. for 10 minutes to perform immunoblot, and then treating the desired protein with antibody.
(§4) In the immunoblot experiment, the darkness of the band was measured using the ImageJ (NIH, Bethesda, […], USA, http://rsb.info.nih.gov/ij/) program, and statistical analysis was performed using the darkness of the protein band in proportion to the loading control. The statistical analysis was performed using the GraphPad Prism version 7 (GraphPad Software) program. For the data, the unpaired two-tailed student's t-test was applied, wherein p<of 0.05 indicates statistical significance.
In FIG. 7, an immunoblot is shown for protein derived from the SN of mice fed with Chow, YPD-02 (2-[4-(3-oxo-1H-isoindol-2-yl)phenyl]propanoic acid), or YPD-01 (2-(4-(1-hydroxypropan-2-yl)phenyl) isoindoline-1-one) diet (0.5% w/w) for 1 week (quantitative graph quantified with β-actin/data was expressed as mean±SEM/statistical significance was measured by applying the unpaired two-tailed student t-test. * p<0.05, ** p<0.01.).

[4] = test system: Parkinson's disease model mice; assay: Pole test in AAV-PARIS Parkinson's disease model mice; format: in vivo; details: AAV-PARIS injected mice, YPD-01 diet 0.5% w/w
Source text: as §1
In order to identify whether YPD-01 is effective in inhibiting the death of dopamine neurons and Parkinson's disease-like behavioral abnormality in the Parkinson's disease model, as shown in Example 5 above, a pole test, which is the most reliable behavioral experiment, was performed.
To investigate behavioral abnormality, Parkinson's disease model mice were transferred to a pole test cage to have the mice adapted for 3 minutes, and then the mouse tails were held and placed on the tip of a vertically erected pole. The time from the moment the mouse took off its hind foot from the tip of the pole until the mouse came down to the floor was measured.

[5] = test system: PGC-1α protein in SH-SY5Y cells; assay: Immunoblot of PGC-1α protein after treating SH-SY5Y cell line with compounds; format: cell-based, human; details: SH-SY5Y cell line, 0.01, 0.1, 1, 10 μM, 48 hours
Experimental: To culture human neuroblasts SH-SY5Y cells (ATCC, Manassas, VA), 10% FBS (vol/vol, Welgene Gold Serum, cat #S 001-07) and DMEM (Welgene fresh media DMEM, cat #LM 001-05) including antibiotics were used, wherein the culture was performed in an incubator (Forma Direct Heat CO2 incubator, Thermo Scientific) at 37° C. in the presence of 5% carbon dioxide.
as §2, §3, §4
As shown in Example 3, an image of an immunoblot performed after treating the SH-SY5Y cell line with compounds (10 μM, 48 hours) is shown in FIG. 6.

[6] = test system: PGC-1α and main target genes (NRF-1, Tfam); assay: RT-qPCR of PGC-1α and its target genes (NRF-1, Tfam) in Parkinson's disease model mice; format: in vivo; details: substantia nigra of AAV-PARIS injected mice, diet for 4 weeks
Source text: as §1
In the animal model experiment set up as in Example 5, whether the expression of PGC-1α and the main target genes (NRF-1, Tfam) of PGC-1α increases due to YPD-01 intake was measured by RT-qPCR method.
The midbrain of mice into which AAV-PARIS was stereotaxically injected and which were fed with Chow or YPD-01 diet for 4 weeks was collected, and RNA was extracted using the total RNA extraction kit (Intron Biotechnology). cDNA was synthesized using the cDNA synthesis kit (Enzynomics) and oligo dT from the extracted RNA. Using primers and SYBR green (Qiagen) reagents for the gene to be analyzed, gene expression in Rotor gene Q (Qiagen) was quantified via qPCR.

Structure (SMILES) | activity on PGC-1α promoter among the 14 drugs (FIG. 5) [1] | death of dopamine neurons (TH immunohistochemistry) [2] | death of dopamine neurons (TH immunoblot in substantia nigra) ([2]; quantified with β-actin) | passage through the BBB [3] | protein level of PGC-1α in the SN (immunoblot) ([3]; quantified with β-actin) | symptoms of behavioral abnormality (time to come down from the top of the pole) [4] | amount of PGC-1α protein (immunoblot) [5] | PARIS-induced suppression of expression of NRF-1 (RT-qPCR) [6] | PARIS-induced suppression of expression of PGC-1α (RT-qPCR) [6] | PARIS-induced suppression of expression of Tfam (RT-qPCR) [6]
CC(CO)c1ccc(N2Cc3ccccc3C2=O)cc1 (stereo not drawn) [YPD-01, 2-(4-(1-hydroxypropan-2-yl)phenyl) isoindoline-1-one] | highest | the death of dopamine neurons was meaningfully inhibited | the death of dopamine neurons by AAV-PARIS was inhibited | successfully passed through BBB | increased the protein level of PGC-1α | disappeared | increased the amount of PGC-1α protein regardless of the concentration | significantly recovered | significantly recovered | significantly recovered
CC(C)OC(=O)C(C)c1ccc(N2Cc3ccccc3C2=O)cc1 (stereo not drawn) [YPD-03, isopropyl 2-(4-(1-oxoisoindolin-2-yl)phenyl) propanoate] | – | – | – | – | – | – | increased the amount of PGC-1α protein in accordance with an increase in the drug concentration | – | – | –
CC(C(=O)O)c1ccc(N2Cc3ccccc3C2=O)cc1 (stereo not drawn) [YPD-02, 2-[4-(3-oxo-1H-isoindol-2-yl)phenyl]propanoic acid, reference compound] | – | – | – | – | – | – | increased the amount of PGC-1α protein in accordance with an increase in the drug concentration | – | – | –

Source: US12564574B2, “Pharmaceutical composition for preventing or treating parkinson's disease, comprising 2-(4-(1-hydroxypropane-2-yl)phenyl)isoindoline-1-one compound” (YEP BIO CO. LTD., priority 2020, dated 2026)
